Results taken from US20090087909A1, “Use of Trehalose in Conifer Somatic Embryogenesis to Increase Germination Vigor” (Weyerhaeuser Company, priority 2007, published 2009).

Test system: Somatic embryos of Loblolly pine, genotypes C and D
Test: Germination rate, yield, germinants/ml, root and hypocotyl length, genotypes C and D (Example 4)
Assay type: cell-based, Loblolly pine (Pinus taeda)
Description: Methods: Somatic embryos of Loblolly pine, genotypes C and D, were cultured as described in EXAMPLE 1 up to incubation in the maintenance media. After incubation in maintenance media using the methods described in EXAMPLE 1, advanced early stage somatic embryos were plated on semi-solid development medium BM3 (with 25 ppm ABA, 1% glucose and 2.5% maltose) at 25 embryos per plate, 15 plates per genotype. Specifically, at five weeks after plating, the media for 10 treatment plates per genotype were replaced with modified development media BM3 containing 5 ppm ABA instead of 25 ppm ABA. […]
After development, the embryos were transferred to stratification medium BM4, and germinated on medium BM5, as described in EXAMPLE 1. After 6 weeks incubation on germination medium, the embryos were assessed for germination rate, root length, hypocotyls length, and epicotyl length. […]
Plate yield was determined during singulation at eight weeks by counting the number of embryos present. […]
Data for germination rate was analyzed with a generalized linear model with a logit link. Yield, germinants/ml, root length, and hypocotyl length data were analyzed with a mixed linear model. […] When variance among all ten treatments was detected, the response means for the trehalose treatments only were compared using Fisher's LSD for multiple comparisons.

OC[C@H]1O[C@H](O[C@H]2O[C@H](CO)[C@@H](O)[C@H](O)[C@H]2O)[C@H](O)[C@@H](O)[C@@H]1O [trehalose, α-D-glucopyranosyl-[1,1]-α-D-glucopyranoside]
Hypocotyl Length LS mean (combined genotypes C and D): positive effect on the hypocotyl length
Root Length genotype C mean (genotype C): induces greater root length development
